Patent US7342026B2, “Substituted quinolines for the treatment of protozoa and retrovirus co-infections” (priority 2001, dated 2008)
Converted amounts (≈) assume the structure as drawn. Like-named read-outs stand apart in the source and are kept apart here. Marks after values point to notes of the source that are not given here.

Experiments:
[1] = tested on: circulating forms of Trypanosoma brucei (S427 strain); assay: microbe, parasite or virus in culture; assay type: cell-based; conditions: for IC50: read-out: T. brucei IC50; for activity on Trypanosoma brucei (in words): comment on Table III
Procedure: d) Tests on the Circulating Forms of Trypanosoma brucei
The circulating forms of Trypanosoma brucei are cultured in MEM medium (minimum essential medium; GIBCO-BRL, No. 072-1100) to which Earle's salts have been added and supplemented with 1 mg/ml of glucose, 2.2 mg/ml of NaHCO3, 10 mM of Hepes, 2 mM of sodium pyruvate, 0.2 mM of 2-mercaptoethanol, 0.1 mM of hypoxanthine and 15% of inactivated horse serum.
The cultures are maintained at 37° C. in 24-well plates in a humid atmosphere (5% CO2-95% air) and the passages are carried out every 2 or 3 days at a density of 10^3 to 10^5 trypomastigotes per ml. The activity of the substituted quinolines is tested in triplicate in 96-well plates in which 10^3 parasites originating from an exponential growth phase are distributed per well, in the presence of the various solutions of substituted quinolines in a final volume of 200 μl. After culturing for 48 hours, the trypanocidal activity is assessed by counting, with a Neubauer cell, the number of live parasites per well.

[2] = tested on: amastigotes of Leishmania infantum (IPZ229/1/89); assay: microbe, parasite or virus in culture; assay type: cell-based; conditions: for IC50: Leishmania infantum, Peritoneal macrophage, in Mus musculus, 48 h, read-out: L. infantum (IPZ229/1/89) IC50
Description: (§1) b) Tests on Amastigotes of Leishmania donovani and Leishmania infantum
(§2) The Leishmania donovani and Leishmania infantum strains are maintained by successive passages in golden hamsters. The amastigotes are isolated from the spleens of the infected hamsters and brought into contact with the purified macrophages.
(§3) Twenty-four hours after intraperitoneal injection of Balb/c mice with a 2% starch solution, the peritoneal macrophages of these mice are collected, washed in Dulbecco PBS and then distributed in Lab-tek® culture chambers, in a proportion of 4×10^4 cells per 100 μl per well in RPMI-1640 medium supplemented with 10% of FCS and antibiotics. After 24 hours at 37° C. in a humid atmosphere (5% CO2), the macrophages are brought into contact with purified amastigotes (3 parasites per macrophage) in a final volume of 200 μl for 4 hours. The medium is then removed in order to eliminate the extracellular parasites, and replaced with 100 μl of fresh medium.
(§4) Twenty-four hours after the beginning of infection, the solutions of substituted quinolines prepared as described in paragraph a) above are added and the leishmanicidal activity is determined after 48 hours by counting the number of parasites still alive in the fixed and Giemsa-stained cells.

[3] = tested on: amastigotes of Leishmania donovani (MHOM/ET/67/L82); assay: microbe, parasite or virus in culture; assay type: cell-based; conditions: for IC50: Leishmania donovani, Peritoneal macrophage, in Mus musculus, 48 h, read-out: L. donovani IC50
Description: as §1, §2, §3, §4

[4] = tested on: amastigotes of Leishmania amazonensis; assay: Amastigotes of Leishmania amazonensis in infected macrophages (leishmanicidal activity); assay type: cell-based; conditions: for L. amazonensis IC100: 100% inhibitory concentration, intracellular amastigotes in BALB/c macrophages, 30 hours after addition; for activity on Leishmania amazonensis (in words): comment on Table II
Procedure: The strain of Leishmania amazonensis is maintained by successive passages in “nude” mice (nu/nu). The amastigotes are isolated from the lesions developed on the footpads, and purified according to the method described by Antoine et al. (Parasitology, 1989, 99: 1).
The leishmanicidal activity of the quinolines is determined 30 hours after addition of the solutions of substituted quinolines. It is based on a more or less large, or even complete, decrease, firstly, in the size of the parasitophorous vacuoles and, secondly, in the number of live intracellular amastigotes.

[5] = tested on: amastigotes of Trypanosoma cruzi (Tulahuen strain); assay: Amastigotes of Trypanosoma cruzi in peritoneal macrophages; assay type: cell-based; conditions: for IC50: read-out: T. cruzi (amastigotes) IC50; for activity on Trypanosoma cruzi (in words): comment on Table III
Procedure: c) Tests on Amastigotes of Trypanosoma cruzi
Peritoneal macrophages from Balb/c mice are collected, washed in Dulbecco PBS and then distributed in 96-well plates in a proportion of 3×10^4 cells per 100 μl and per well, in RPMI-1640 medium supplemented with 10% FCS and antibiotics.
After 24 hours at 37° C., 10^5 trypomastigotes are added with serial 2-fold dilutions of the various substituted quinolines. The cultures are then incubated at 37° C. for 4 days in a humid atmosphere (5% CO2-95% air). After fixing, and then staining with Giemsa, the antiparasitic activity is assessed by counting the extracellular trypomastigotes and the intracellular amastigotes.

[6] = tested on: amastigotes of Leishmania infantum (MHOM/MA(BE)67); assay: Amastigotes of Leishmania infantum (MHOM/MA(BE)67) in peritoneal macrophages; assay type: cell-based; conditions: for IC50: Leishmania infantum, Peritoneal macrophage, in Mus musculus, 48 h, read-out: L. infantum (MHOM/MA (BE) 67) IC50; for activity on the MHOM/MA(BE)67 strain of Leishmania infantum (in words): comment on Table II
macrophages = assay: Cytotoxicity on macrophages; assay type: cell-based, BALB/c mice
Procedure: The macrophages, which will be used as host cells for the leishmania, are obtained after multiplication and differentiation of medullary precursors from BALB/c mice. This culture is prepared in the presence of supernatant from a conditioned line of fibroblasts L-929, and source of “Macrophage Colony Stimulating Factor”. After culturing for 5 days on a hydrophobic support, the adherent macrophages are recovered and then distributed in flat-bottomed 96-well plates for cell culture, in a proportion of 4×10^4 macrophages per well. The macrophages are then infected with purified amastigotes (4 parasites per macrophage) and incubated at 34° C. for 24 hours to allow development of parasitophorous vacuoles and multiplication of parasites. Under these conditions, more than 95% of the macrophages are infected.
The solutions of the substituted quinolines to be tested are prepared in DMSO before being added, at various concentrations, to the infected macrophage cultures.
The results obtained with the substituted quinolines, assigned Nos. 1, 2, 4, 6 to 11, 13 to 20, 23 to 34, 37 and 38 in Table I, are given in Table II below as regards their activity on the amastigotes of Leishmania amazonensis, of Leishmania donovani and of Leishmania infantum, and also their cytotoxicity with respect to the macrophages.

[7] = tested on: Leishmania infantum (MHOM/FR/91/LEM2259V); assay: Balb/c mice infected with visceral leishmaniasis (Leishmania infantum); assay type: in vivo; conditions: 10 days, quinolines oral 25 mg/kg/day, Glucantime subcutaneous 100 mg/kg/day; for Number of parasites in the liver per gram / Number of parasites in the spleen per gram: n=8; for % reduction in the number of parasites in the liver / % reduction in the number of parasites in the spleen: versus without treatment
Procedure: b) Tests Carried on Laboratory Animals Infected with Visceral Leishmaniasis (Leishmania infantum): 1/Laboratory Animals and Parasites
The Balb/c mice were infected with Leishmania infantum parasites at the promastigote stage (reference: MHOM/FR/91/LEM2259V), a strain isolated from a patient carrying AIDS. This strain is maintained in Schneider's drosophila culture medium (Gibco, USA) supplemented with 20% of fetal calf serum. The infectious promastigotes are cultured for 7 days and then counted. Each mouse is then infected intravenously with 0.2 ml of culture medium containing 10^7 promastigotes.
Counting of amastigotes forms in the liver and spleen.
After the treatments have been stopped and the animals sacrificed, the viscera, liver and spleen are weighed and collected in a Petri dish. Each organ is mounted several times on a degreased glass slide which, fixed and stained by the May-Grünwald-Giemsa technique, makes it possible to determine the number of amastigote forms per 500 nucleated cells.
The results are expressed in Table VI.

[8] = tested on: HIV-1 (molecular clone pLN4-3); assay: microbe, parasite or virus in culture; assay type: cell-based, human immunodeficiency virus (HIV-1); conditions: read-out: Antiretroviral activity IC50
Description: e) Tests on the Replication of HIV-1
CEM4fx cells are infected de novo with the molecular clone pLN4-3 of HIV-1, and simultaneously treated with the substituted quinolines to be tested, dissolved beforehand in DMSO. The virus multiplies for three days, and then the presence of infectious virions is detected in the culture supernatant (RPMI medium) by reinfecting “P4” cells which have a reporter gene which is expressed when they are infected with the virus. The viral load is quantified after culturing for 72 hours, by two methods: estimation of the viral load by infection of HeLa-βgal CD4^+ cells and determination of the amount of viral protein p24 by an ELISA assay.

[9] = Cytotoxicity with respect to host CEM4fx cells (MTT bioconversion assay); assay type: cell-based; conditions: human, CEM4fx cells (host cells)
Procedure: (§5) Moreover, the cytotoxicity of the quinolines with respect to the host cells is measured by an MTT [3-(4,5-dimethylthiazol-2-yl)-2,5-diphenyltetrazolium bromide]bioconversion assay. All the assays are carried out in triplicate.

CEM4fx cells = assay: as above; assay type: cell-based
Procedure: as §5

[10] = tested on: Leishmania amazonensis (IFLA/BR/67/PH8); conditions: 15 days, quinolines oral 25 mg/kg/day, Glucantime subcutaneous 100 mg/kg (28 mg Sbv/kg)
Description: a) Tests Carried Out on Laboratory Animals Infected with Cutaneous Leishmaniasis (Leishmania amazonensis):
The experimental animals are male or female approximately 6- to 8-week-old Balb/c mice weighing 18-24 g, subsequently reared for reproduction in the animal house of the Instituto de Investigaciones en Ciencias de la Salud (IICS), Asuncion, Paraguay. Golden hamsters (Mesocricetus auratus) are used to maintain these strains and as reservoirs for L. amazonensis parasites.
The Balb/c mice are infected with Leishmania amazonensis parasites, at the amastigote stage of the reference strain IFLA/BR/67/PH8, subcutaneously in the ventral pad of the right rear foot, the left foot remaining as a control. The amount of amastigotes inoculated is 2×10^6 amastigotes in 50 μl of phosphate buffer saline (PBS) for L. amazonensis.
The treatments begin once the infection is well established, mainly in general 5 to 6 weeks after inoculation of the L. amazonensis amastigotes. The reference medicinal product chosen is Glucantime® or meglumine antimoniate from Aventis (France).
The untreated control mice are given 50 μl of a solution of Tween 80 with PBS.
Measurement of the lesion: the diameters of the lesions on the infected foot and on the control foot are measured using a micrometer with 1/10 mm graduations, once a week for the duration of the experiment. The first measurements begin 48 hours after inoculation of the parasites. Calculating the difference in the two measurements gives the thickness of the lesion.
The 5 ml of puree obtained are centrifuged twice. The layer containing the amastigotes is subjected to counting of the number of parasites using a Neubauer cell. Five counts are performed on each amastigote layer. The number of amastigote forms is determined using the Stauber formula which takes into account the weight of the lesion: A/N×W×coefficient of the Neubauer cell • A=number of amastigotes, N=number of nuclei W=weight of the lesion
The results are expressed by the calculation of the arithmetic mean of the diameters of the lesions measured once a week and, at the end of the protocol, after sacrifice of the mice, of the weights of the lesions and of the number of amastigotes. A Student's test (t-test) is used for the statistical analysis of all the data. The comparison is made between “control” groups with a “treatment” group per pair. A value of P<0.05 is considered to be statistically significant.

[11] = Trypanosoma cruzi, TULAHUEN, Peritoneal macrophage, in Mus musculus, 96 h
[12] = HIV-1 replication in CEM4fx cells, 72 hours
[13] = circulating forms, culturing for 48 hours
[14] = Balb/c peritoneal macrophages, 4 days
[15] = amastigotes in Balb/c peritoneal macrophages, 48 hours

SMILES: C=Cc1ccc2ccccc2n1 [Quinoline 2, (2-quinolyl)ethylene]
- IC50 ([1]; Trypanosoma brucei, 48 h): 13 µM
- IC50 [2]: 1.3 µg/mL (≈ 8.38 µM)
- IC50 [3]: 1.2 to 2.8 µg/mL (≈ 7.73 to 18 µM)
- L. amazonensis IC100 [4]: 3.12 µg/mL
- IC50 [5, 11]: 12 µM
- IC50 [6]: > 32 µM
- Cytotoxicity on macrophages (macrophages; macrophages from BALB/c mice): 6.25 µg/mL

SMILES: O=CC=Cc1ccc2ccccc2n1 [Quinoline 9, 3-(2-quinolyl)propenal]
- Number of parasites in the liver per gram [7]: 3.8 × 10^6 a, e per gram
- Number of parasites in the spleen per gram [7]: 2.2 × 10^6 b per gram
- % reduction in the number of parasites in the liver [7]: −91.6%
- % reduction in the number of parasites in the spleen [7]: −47.6%
- IC50 ([8]; Human immunodeficiency virus 1, 72 h): 0.6 µM
- IC50 ([1]; Trypanosoma brucei, 48 h): 19 µM
- IC50 [9]: 2 µM
- L. amazonensis IC100 [4]: 0.781 µg/mL
- IC50 [5, 11]: 5 µM
- Cytotoxicity on macrophages (macrophages; BALB/c, mouse): 1.56 µg/mL

SMILES: CCCCCc1ccc2ccccc2n1 [Quinoline 20]
- IC50 [8, 12]: 2 µM
- IC50 [1, 13]: 13 µM
- IC50 (CEM4fx cells): 9 µM
- L. amazonensis IC100 [4]: >50 µg/mL
- IC50 [5, 14]: 19 µM
- Cytotoxicity on macrophages (macrophages; macrophages from BALB/c mice): >100 µg/mL

SMILES: COC(=O)/C=C/c1ccc2ccccc2n1 [Quinoline 23, methyl E-3-(2-quinolyl)-2-propenoate]
- Number of parasites in the liver per gram [7]: 1.8 × 10^7 d per gram
- Number of parasites in the spleen per gram [7]: 1.5 × 10^6 c, f per gram
- % reduction in the number of parasites in the liver [7]: −60.0%
- % reduction in the number of parasites in the spleen [7]: −64.3%
- IC50 ([1]; Trypanosoma brucei, 48 h): 16 µM
- activity on Trypanosoma brucei (in words) [1]: less advantageous
- IC50 [2]: 0.4 to 2.2 µg/mL (≈ 1.88 to 10.3 µM)
- activity on the IPZ229/1/89 strain of Leishmania infantum (in words) ([2]; comment on Table II): marked activity
- IC50 [3]: 3.3 to 30 µg/mL (≈ 15.5 to 141 µM)
- activity on Leishmania donovani (in words) ([3]; comment on Table II): marked activity
- L. amazonensis IC100 [4]: 12.5 µg/mL
- activity on Leishmania amazonensis (in words) [4]: marked activity
- IC50 [5, 11]: 15 µM
- activity on Trypanosoma cruzi (in words) [5]: less advantageous
- IC50 [6]: 26 µM
- activity on the MHOM/MA(BE)67 strain of Leishmania infantum (in words) [6]: less advantageous
- Cytotoxicity on macrophages (macrophages; BALB/c, mouse): 50 µg/mL
- Mean of the number of parasites in the lesion per gram ([10]; n=8): 3.1 × 10^6 per gram
- Weight of lesions (mean ± standard deviation) ([10]; n=8): 0.059 ± 0.010 g
- % reduction in the number of parasites in the lesion ([10]; versus untreated controls): −88%**

SMILES: CCCCC/C=C/c1ccc2ccccc2n1 [Quinoline 25]
- IC50 [1, 13]: 4 µM
- activity on Trypanosoma brucei (in words) [1]: advantageous activity
- L. amazonensis IC100 [4]: 12.5 µg/mL
- activity on Leishmania amazonensis (in words) [4]: advantageous activity
- IC50 [5, 14]: 11 µM
- activity on Trypanosoma cruzi (in words) [5]: advantageous activity
- activity on the MHOM/MA(BE)67 strain of Leishmania infantum (in words) [6]: less active
- Cytotoxicity on macrophages (macrophages; macrophages from BALB/c mice): 25 µg/mL

SMILES: C[Si](C)(C)C#Cc1ccc2ccccc2n1 [Quinoline 26]
- IC50 [8, 12]: 0.9 µM
- L. infantum (IPZ229/1/89) IC50 [2, 15]: 10.9 µg/mL
- L. donovani IC50 [3, 15]: 1.7 µg/mL
- IC50 (CEM4fx cells): 3 µM
- L. amazonensis IC100 ([4]; listed as 26): 12.5 µg/mL
- IC50 [5, 14]: 8 µM
- Cytotoxicity on macrophages (macrophages; macrophages from BALB/c mice): 1.56 µg/mL

SMILES: Br/C=C/c1ccc2ccccc2n1 [Quinoline 29, E-1-bromo-2-(2-quinolyl)-ethene]
- IC50 ([1]; Trypanosoma brucei, 48 h): 1 µM
- L. amazonensis IC100 [4]: 0.7812 µg/mL
- IC50 [5, 11]: < 0.5 µM
- IC50 [6]: 2 µM
- Cytotoxicity on macrophages (macrophages; macrophages from BALB/c mice): 3.12 µg/mL
